Source: patent publication US10399945B2, “Tetrahydronaphthyl urea derivative” (MOCHIDA PHARMACEUTICAL CO., LTD., priority 2017, dated 2019)

Molecular target: Human TrkA Protein (Homo sapiens (Human), UniProt P04629)
Assay: Evaluation of Binding Activity for Human TrkA Protein (TrkA LanthaScreen Eu Kinase Binding Assay)
Conditions: TrkA enzyme, Kinase Tracer 236, TR-FRET, 60 minutes at room temperature
Procedure: (Pharmacological Experimental Example 1): Evaluation of Binding Activity for Human TrkA Protein
Measurement was carried out using TrkA LanthaScreen (registered trademark) Eu Kinase Binding Assay (ThermoFisher SCIENTIFIC). To a 384 well plate (Corning), 2.5 μL of the test compound having various concentrations and diluted with Kinase buffer (ThermoFisher SCIENTIFIC) and 2.5 μL of 15 nM TrkA enzyme (ThermoFisher SCIENTIFIC) were added. Moreover, […] Eu-anti-His Tag antibody (ThermoFisher SCIENTIFIC) and 5 μL of 30 nM Kinase (registered trademark) Tracer 236 (ThermoFisher SCIENTIFIC) were added, followed by reaction at room temperature for 60 minutes. After the reaction, the fluorescence intensity of Europium (Emission wavelength 615 nm) and TR-FRET (Emission wavelength 665 nm) with an excitation wavelength of 340 nm were measured with EnVision 2100 (PerkinElmer) to calculate the fluorescence ratio as the amount of the test compound and the TrkA enzyme bonded. The inhibitory activity (IC50 value) of each test compound was calculated with the fluorescence ratio of the well to which a solvent was added instead of the test compound being 0% and the fluorescence ratio of the well without addition of the TrkA protein being 100%.
In Table 1, […] mean Compounds 1 to 62 synthesized in accordance with Examples 1 to 62 described later.

Sequence of Human TrkA Protein (P04629 33-796): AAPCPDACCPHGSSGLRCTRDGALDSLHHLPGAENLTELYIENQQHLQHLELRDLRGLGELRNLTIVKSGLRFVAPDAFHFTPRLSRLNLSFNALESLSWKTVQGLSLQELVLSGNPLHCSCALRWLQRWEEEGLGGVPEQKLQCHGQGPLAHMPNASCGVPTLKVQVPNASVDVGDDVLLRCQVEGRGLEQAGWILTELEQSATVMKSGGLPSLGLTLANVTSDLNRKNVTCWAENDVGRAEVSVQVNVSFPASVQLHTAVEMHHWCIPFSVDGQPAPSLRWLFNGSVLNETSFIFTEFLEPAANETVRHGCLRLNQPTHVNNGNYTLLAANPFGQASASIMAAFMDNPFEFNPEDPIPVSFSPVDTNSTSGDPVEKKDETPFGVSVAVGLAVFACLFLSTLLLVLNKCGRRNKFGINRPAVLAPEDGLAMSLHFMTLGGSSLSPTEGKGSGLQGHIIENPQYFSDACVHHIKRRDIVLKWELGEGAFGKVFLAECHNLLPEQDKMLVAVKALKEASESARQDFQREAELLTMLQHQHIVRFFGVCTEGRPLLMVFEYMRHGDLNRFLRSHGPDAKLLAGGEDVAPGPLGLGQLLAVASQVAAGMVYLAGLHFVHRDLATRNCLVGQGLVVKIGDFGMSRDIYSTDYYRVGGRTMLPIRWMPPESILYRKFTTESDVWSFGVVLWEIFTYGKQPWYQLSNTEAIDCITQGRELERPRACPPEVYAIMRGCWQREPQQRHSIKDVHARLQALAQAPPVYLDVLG

Row | Compound | IC50
1 | Cc1nnc(CNC(=O)c2nc(-c3ccccc3)c(NC(=O)N[C@@H]3c4cc(F)c(F)cc4C(C)(C)C[C@H]3O)cc2C)o1 (racemic) [Compound 41a] | ≤ 0.05 µM
2 | Cc1cc(NC(=O)N[C@@H]2c3cc(F)c(F)cc3C(C)(C)C[C@H]2O)c(-c2ccccc2)nc1C(=O)NCC(C)(C)O (racemic) [Compound 42, rac-5-(3-((1R,2R)-6,7-difluoro-2-hydroxy-4,4-dimethyl-1,2,3,4-tetrahydronaphthalen-1-yl)ureido)-N-(2-hydroxy-2-methylpropyl)-3-methyl-6-phenylpicolinamide] | ≤ 0.05 µM
3 | Cc1cc(NC(=O)N[C@@H]2c3cc(F)c(F)cc3C(C)(C)C[C@H]2O)c(-c2ccccc2)nc1CO (racemic) [Compound 43, rac-1-((1R,2R)-6,7-difluoro-2-hydroxy-4,4-dimethyl-1,2,3,4-tetrahydronaphthalen-1-yl)-3-(6-(hydroxymethyl)-5-methyl-2-phenylpyridin-3-yl)urea] | ≤ 0.05 µM
4 | Cc1ncc(-c2nc(-c3ccccc3)c(NC(=O)N[C@@H]3c4cc(F)c(F)cc4C(C)(C)C[C@H]3O)cc2C)cn1 (racemic) [Compound 44, rac-1-((1R,2R)-6,7-difluoro-2-hydroxy-4,4-dimethyl-1,2,3,4-tetrahydronaphthalen-1-yl)-3-(5-methyl-6-(2-methylpyrimidin-5-yl)-2-phenylpyridin-3-yl)urea] | ≤ 0.05 µM
5 | Cc1ncc(-c2nc(-c3ccccc3)c(NC(=O)N[C@@H]3c4cc(F)c(F)cc4C(C)(C)C[C@H]3O)cc2C)cn1 (racemic) [Compound 44a] | ≤ 0.05 µM
6 | Cc1cc(NC(=O)N[C@@H]2c3cc(F)c(F)cc3C(C)(C)C[C@H]2O)c(-c2ccccc2)nc1-c1ccc(CO)cc1 (racemic) [Compound 45, rac-1-((1R,2R)-6,7-difluoro-2-hydroxy-4,4-dimethyl-1,2,3,4-tetrahydronaphthalen-1-yl)-3-(6-(4-(hydroxymethyl)phenyl)-5-methyl-2-phenylpyridin-3-yl)urea] | ≤ 0.05 µM
7 | Cc1cc(NC(=O)N[C@@H]2c3cc(F)c(F)cc3C(C)(C)C[C@H]2O)c(-c2ccccc2)nc1-c1cccc(CO)c1 (racemic) [Compound 46, rac-1-((1R,2R)-6,7-difluoro-2-hydroxy-4,4-dimethyl-1,2,3,4-tetrahydronaphthalen-1-yl)-3-(6-(3-(hydroxymethyl)phenyl)-5-methyl-2-phenylpyridin-3-yl)urea] | ≤ 0.05 µM
8 | Cc1cc(NC(=O)N[C@@H]2c3cc(F)c(F)cc3C(C)(C)C[C@H]2O)c(-c2ccccc2)nc1-c1cccc(C#N)c1 (racemic) [Compound 47, rac-1-(6-(3-cyanophenyl)-5-methyl-2-phenylpyridin-3-yl)-3-((1R,2R)-6,7-difluoro-2-hydroxy-4,4-dimethyl-1,2,3,4-tetrahydronaphthalen-1-yl)urea] | ≤ 0.05 µM
9 | Cc1cc(NC(=O)N[C@@H]2c3cc(F)c(F)cc3C(C)(C)C[C@H]2O)c(-c2ccccc2)nc1-c1ccn(C)n1 (racemic) [Compound 48, rac-1-((1R,2R)-6,7-difluoro-2-hydroxy-4,4-dimethyl-1,2,3,4-tetrahydronaphthalen-1-yl)-3-(5-methyl-6-(1-methyl-1H-pyrazol-3-yl)-2-phenylpyridin-3-yl)urea] | ≤ 0.05 µM
10 | Cc1cc(NC(=O)N[C@@H]2c3cc(F)c(F)cc3C(C)(C)C[C@H]2O)c(-c2ccccc2)nc1-c1ccn(C)n1 (racemic) [Compound 48a] | ≤ 0.05 µM
11 | Cc1cc(-c2nc(-c3ccccc3)c(NC(=O)N[C@@H]3c4cc(F)c(F)cc4C(C)(C)C[C@H]3O)cc2C)cnn1 (racemic) [Compound 49, rac-1-((1R,2R)-6,7-difluoro-2-hydroxy-4,4-dimethyl-1,2,3,4-tetrahydronaphthalen-1-yl)-3-(5-methyl-6-(6-methylpyridazin-4-yl)-2-phenylpyridin-3-yl)urea] | ≤ 0.05 µM
12 | Cc1ncc(-c2nc(-c3ccccc3)c(NC(=O)N[C@@H]3c4cc(F)c(F)cc4C(C)(C)C[C@H]3O)cc2C)s1 (racemic) [Compound 50, rac-1-((1R,2R)-6,7-difluoro-2-hydroxy-4,4-dimethyl-1,2,3,4-tetrahydronaphthalen-1-yl)-3-(5-methyl-6-(2-methylthiazol-5-yl)-2-phenylpyridin-3-yl)urea] | 0.05 to 1 µM
13 | Cc1cc(NC(=O)N[C@@H]2c3cc(F)c(F)cc3C(C)(C)C[C@H]2O)c(-c2ccccc2)nc1-c1cnn(C)c1 (racemic) [Compound 51, rac-1-((1R,2R)-6,7-difluoro-2-hydroxy-4,4-dimethyl-1,2,3,4-tetrahydronaphthalen-1-yl)-3-(5-methyl-6-(1-methyl-1H-pyrazol-4-yl)-2-phenylpyridin-3-yl)urea] | ≤ 0.05 µM
14 | Cc1cc(NC(=O)N[C@@H]2c3cc(F)c(F)cc3C(C)(C)C[C@H]2O)c(-c2ccccc2)nc1-c1ccc(C#N)cc1 (racemic) [Compound 52, rac-1-(6-(4-cyanophenyl)-5-methyl-2-phenylpyridin-3-yl)-3-((1R,2R)-6,7-difluoro-2-hydroxy-4,4-dimethyl-1,2,3,4-tetrahydronaphthalen-1-yl)urea] | ≤ 0.05 µM
15 | Cc1cc(NC(=O)N[C@@H]2c3cc(F)c(F)cc3C(C)(C)C[C@H]2O)c(-c2ccccc2)nc1-c1cn[nH]c1 (racemic) [Compound 53, rac-1-((1R,2R)-6,7-difluoro-2-hydroxy-4,4-dimethyl-1,2,3,4-tetrahydronaphthalen-1-yl)-3-(5-methyl-2-phenyl-6-(1H-pyrazol-4-yl)pyridin-3-yl)urea] | ≤ 0.05 µM
16 | Cc1cc(NC(=O)N[C@@H]2c3cc(F)c(F)cc3C(C)(C)C[C@H]2O)c(-c2ccccc2)nc1-c1cnc(C(C)(C)O)nc1 (racemic) [Compound 54, rac-1-((1R,2R)-6,7-difluoro-2-hydroxy-4,4-dimethyl-1,2,3,4-tetrahydronaphthalen-1-yl)-3-(6-(2-(2-hydroxypropan-2-yl)pyrimidin-5-yl)-5-methyl-2-phenylpyridin-3-yl)urea] | ≤ 0.05 µM
17 | Cc1cc(NC(=O)N[C@@H]2c3cc(F)c(F)cc3C(C)(C)C[C@H]2O)c(-c2ccccc2)nc1-c1ccc(CO)nc1 (racemic) [Compound 55, rac-1-((1R,2R)-6,7-difluoro-2-hydroxy-4,4-dimethyl-1,2,3,4-tetrahydronaphthalen-1-yl)-3-(6′-(hydroxymethyl)-3-methyl-6-phenyl-[2,3′-bipyridin]-5-yl)urea] | ≤ 0.05 µM
18 | Cc1cnc(C2CCOCC2)c(NC(=O)N[C@@H]2c3cc(F)c(F)cc3C(C)(C)C[C@H]2O)c1 (racemic) [Compound 57, rac-1-((1R,2R)-6,7-difluoro-2-hydroxy-4,4-dimethyl-1,2,3,4-tetrahydronaphthalen-1-yl)-3-(5-methyl-2-(tetrahydro-2H-pyran-4-yl)pyridin-3-yl)urea] | 0.05 to 1 µM
19 | Cc1cc(NC(=O)N[C@@H]2c3cc(F)c(F)cc3C(C)(C)C[C@H]2O)c(C2CCOCC2)nc1C(N)=O (racemic) [Compound 58, rac-5-(3-((1R,2R)-6,7-difluoro-2-hydroxy-4,4-dimethyl-1,2,3,4-tetrahydronaphthalen-1-yl)ureido)-3-methyl-6-(tetrahydro-2H-pyran-4-yl)picolinamide] | 0.05 to 1 µM
20 | Cc1ncc(-c2nc(C3CCOCC3)c(NC(=O)N[C@@H]3c4cc(F)c(F)cc4C(C)(C)C[C@H]3O)cc2C)cn1 (racemic) [Compound 59, rac-1-((1R,2R)-6,7-difluoro-2-hydroxy-4,4-dimethyl-1,2,3,4-tetrahydronaphthalen-1-yl)-3-(5-methyl-6-(2-methylpyrimidin-5-yl)-2-(tetrahydro-2H-pyran-4-yl)pyridin-3-yl) urea] | 0.05 to 1 µM
